Entries after “also recorded” stand apart in the source; their conditions may differ.
System: advance progressive cancers refractory to, or relapsed on, all conventional therapies
Assay: ProGem1 dose escalation clinical study of NUC-1031
Format: in vivo, human
Design: CA125 level: unit not given here
Description: The following data were generated in clinical studies of NUC-1031 in human patients with advance progressive cancers that are refractory to, or have relapsed on, all conventional therapies that have been used to date. The results clearly illustrate the ability of NUC-1031 to successfully treat refractory cancers.
Although the primary objectives of the dose escalation part of the study were to determine the Recommended Phase II Dose (RP2D) and safety profile, secondary objectives included determining the PK profile, however effective treatment of patients with a range of refractory cancers has also been observed as part of this study.
A total of 68 patients have been entered into this dose escalation study, of which 49 were evaluable for clinical response in that they have received at least 2 Cycles of NUC-1031 and were therefore eligible for a RECIST 1.1 assessment.
NUC-1031 was administered as a 5 to 30 minute intravenous slow bolus injection. • Schedule A: NUC-1031 was administered on days 1, 8, 15 of a 4 weekly Cycle. • Schedule B: NUC-1031 was administered on days 1, 5, 8, 12, 15, 19, of a 4 weekly Cycle. Evaluable Patients [n=49]
Evaluable patients were patients that received ≥2 Cycles of NUC-1031 and were therefore eligible for a RECIST 1.1 assessment at the end of Cycle 2. Where the disease response duration, measured in months, is followed by a “+” this indicates ongoing disease control as of the latest cut-off date.

[1] = Patient 004, breast cancer, 500 mg/m^2 weekly
[2] = Patient 005, ovarian cancer, 500 mg/m^2 weekly
[3] = Patient 006, cholangiocarcinoma, 375 mg/m^2 twice weekly, then 500 mg/m^2
[4] = Patient 007, colorectal cancer, 375 mg/m^2 twice weekly, then 500 mg/m^2 weekly
[5] = Patient 008, cancer of unknown primary, 375 mg/m^2 twice weekly
[6] = Patient 010, endometrial cancer, 750 then 500 mg/m^2 weekly
[7] = Patient 011, uterine carcinosarcoma, 375 mg/m^2 twice weekly
[8] = Patient 011, uterine carcinosarcoma, 375 mg/m^2 twice weekly, then 625 mg/m^2 weekly
[9] = Patient 012, cholangiocarcinoma, 375 mg/m^2 twice weekly, then 625 mg/m^2 weekly
[10] = Patient 013, cervical cancer, 750, 625, then 500 mg/m^2 weekly
[11] = Patient 017, lung cancer, 750 then 625 mg/m^2 weekly
[12] = Patient 018, lung cancer, 625 mg/m^2 weekly
[13] = Patient 021, fallopian tube cancer, 625 mg/m^2 weekly
[14] = Patient 025, mesothelioma, 725 mg/m^2 weekly
[15] = Patient 026, colorectal cancer, 725 mg/m^2 weekly
[16] = Patient 027, ovarian cancer, 725, 675, then 625 mg/m^2 weekly
[17] = Patient 029, breast cancer, 725 mg/m^2 weekly
[18] = Patient 030, ovarian cancer, 725 mg/m^2 weekly
[19] = Patient 032, oesophageal cancer, 750 mg/m^2 weekly
[20] = Patient 033, cholangiocarcinoma, 750 mg/m^2 weekly
[21] = Patient 036, renal carcinoma, 825 then 750 mg/m^2 weekly
[22] = Patient 037, pancreatic cancer, 1,000 then 900 mg/m^2 weekly

C[C@H](NP(=O)(OC[C@H]1O[C@@H](n2ccc(N)nc2=O)C(F)(F)[C@@H]1O)Oc1ccccc1)C(=O)OCc1ccccc1 (stereo partly drawn) [NUC-1031, 2′-deoxy-2′,2′-difluoro-D-cytidine-5′-O-[phenyl (benzoxy-L-alaninyl)] phosphate]
Best response to RECIST [1]: Stable Disease
Duration of response to RECIST [1]: 12 months
Best response to RECIST [2]: Stable Disease
Duration of response to RECIST [2]: 15 months
CA125 level (Patient 005, ovarian cancer, end of Cycle 6 (208 at start of study)): 140
Best response to RECIST [3]: Stable Disease
Duration of response to RECIST [3]: 3 months
CA19.9 level (Patient 006, cholangiocarcinoma, after two doses (from 125,002)): 59,285
Adverse events (grade) [4]: thrombocytopaenia (G3)
Best response to RECIST [4]: Stable Disease
Duration of response to RECIST [4]: 3 months
CEA level (Patient 007, colorectal cancer, after treatment (from 361)): 286
CA19.9 level (Patient 007, colorectal cancer, after treatment (from 3,151)): 2,957
Adverse events (grade) [5]: transient (G3) transaminitis (ALT and AST)
Best response to RECIST [5]: Stable Disease
Duration of response to RECIST [5]: 3 months
Adverse events (grade) [6]: neutropenia (G3); also recorded: transient Grade 3 anaemia
Best response to RECIST [6]: Stable Disease
Duration of response to RECIST [6]: 9 months
CA125 level (Patient 010, endometrial cancer, after treatment (from 727)): 488
Adverse events (grade) [7]: transient neutropaenia (G3); also recorded: low haemoglobin (G2)
Reduction in tumour volume [7]: 26%
Best response to RECIST [8]: Stable Disease
Duration of response to RECIST [8]: 4 months
Best response to RECIST [9]: Stable Disease
Duration of response to RECIST [9]: 8 months
Best response to RECIST [10]: Partial Response
Duration of response to RECIST [10]: 9 months
PFS [10]: 11 months
Best response to RECIST (Patient 014, mesothelioma, 750 then 625 mg/m^2 weekly): Progressive Disease
Best response to RECIST (Patient 015, cancer (unknown primary), 750, 625, then 500 mg/m^2 weekly): Partial Response
Reduction in tumour size (Patient 015, cancer (unknown primary), CT scan on 9 Jan. 2015): approximately 58%
Adverse events (grade) (Patient 015, cancer (unknown primary), Cycle 1 Day 8): thrombocytopenia (G3); also recorded: lymphopenia (G3); also recorded: neutropenia (G2)
PFS (Patient 015, cancer (unknown primary), ongoing): ≥ 24 months
Duration of response to RECIST (Patient 015, cancer (unknown primary), ongoing, 750, 625, then 500 mg/m^2 weekly): ≥ 20 months
Best response to RECIST [11]: Partial Response
Duration of response to RECIST [11]: 3 Months
PFS [11]: 10 Months
Best response to RECIST [12]: Stable Disease
Duration of response to RECIST [12]: 4 months
Best overall response [13]: Partial Response
Duration of Partial Response according to GCIG criteria [13]: 9 months
Duration of Partial Response according to RECIST [13]: 3 months
CA125 reduction from baseline (Patient 021, fallopian tube cancer, baseline to end of Cycle 6): 91%
CA125 level (Patient 021, fallopian tube cancer, end of Cycle 6 (baseline 372)): 35
Best response to RECIST (Patient 024, cancer of unknown primary, 675 mg/m^2 weekly): Progressive Disease
Best response to RECIST [14]: Stable Disease
Duration of response to RECIST [14]: 4 months
Best response to RECIST [15]: Stable Disease
Duration of response to RECIST [15]: 4 months
Adverse events (grade) (Patient 027, ovarian cancer, 725 mg/m^2, following Cycle 1 Day 1, a DLT): elevated ALT (G3)
Best response to RECIST [16]: Stable Disease
Duration of response to RECIST [16]: 8 months
Reduction in tumour volume [16]: 23%
ALT level (Patient 027, ovarian cancer, day 7 after Cycle 1 Day 1 at 725 mg/m^2 (96 at baseline)): 256 U/L
CA125 level (Patient 027, ovarian cancer, end of Cycle 6 (188 at baseline)): 99
Best response to RECIST [17]: Stable Disease
Duration of response to RECIST [17]: 4 months
Best response to RECIST [18]: Stable Disease
Duration of response to RECIST [18]: 3 months
Best response to RECIST (Patient 031, cholangiocarcinoma, 750 mg/m^2 weekly, end of Cycle 2 CT scan): Progressive Disease
Best response to RECIST [19]: Stable Disease
Duration of response to RECIST [19]: 2 months
Best response to RECIST [20]: Stable Disease
Duration of response to RECIST [20]: 3 months
Adverse events (grade) (Patient 036, renal carcinoma, 825 mg/m^2, following Cycle 5 Day 1): thrombocytopenia (G3)
Best response to RECIST [21]: Stable Disease
Duration of response to RECIST [21]: 5 months
Reduction in tumour volume (Patient 036, renal carcinoma, end of Cycle 4 CT scan): 7%
Best response to RECIST [22]: Partial Response
Duration of response to RECIST [22]: 1 month
PFS [22]: 4 months
Reduction in tumour volume (Patient 037, pancreatic cancer, CT scan on 29 Apr. 2014): 30%
CEA level (Patient 037, pancreatic cancer, after treatment (536 at baseline)): 42
CA19.9 level (Patient 037, pancreatic cancer, after treatment (15,000 at baseline)): 4,000
Reduction in tumour volume (Patient 037, pancreatic cancer, end of Cycle 2 CT scan): 18.4%
Best response to RECIST (Patient 038, ovarian cancer, 900 mg/m^2 weekly): Progressive Disease
Increase in tumour volume (Patient 038, ovarian cancer, end of Cycle 2 scan): 25%

— US11400107B2, “Cancer treatments” (NuCana plc, priority 2016, dated 2022)
